Experimental data as given in patent US11174267B2, “Spiroindolinones and therapeutic uses thereof” (The Regents of the University of California, priority 2015, dated 2021).
Where two headings read alike, the source gives them in different places.

Columns and labels:
C. albicans = assay: Drug susceptibility assay in combination with azole antifungals and other Cdr1/Mdr1 substrates; assay type: cell-based, Candida albicans; settings: for EC50 / MIC50: Candida albicans
Experimental: Drug susceptibility assay. All the assays were carried out with SC medium in 24-well plates. […] Plates were incubated at 30° C. for 15 h. Cell growth was measured by reading absorbance at 600 nm. […] EC50 values were calculated by nonlinear regression curve fit of log (concentration) versus the % cell growth.
Compound 1 was also studied to determine if it can synergize with all azole antifungals and non-azole drugs that are known Cdr1 substrates. […] The effective concentrations of the spiroindolinone used are at nM levels, much lower than that of substrates (azoles for example), therefore ruling out competitive inhibition as the mechanism. […] With further study it is possible to determine drug-target interaction sites on Cdr1.

[1] = tested on: susceptible strain (HLY4123) of C. albicans; assay: Dose-response with fluconazole (0.25 μg/mL) against susceptible strain; assay type: cell-based, Candida albicans; settings: Candida albicans, with fluconazole 0.25 μg/mL; strain HLY4123
Experimental: (§1) C. albicans was grown in SC medium overnight and then diluted to an effective OD600 of 0.0625. Serial ten-fold dilutions of the test compounds (0.15-1500 μM) were prepared in DMSO in 1.5 mL Eppendorf tubes. […] The plates were incubated in a rotary shaker/incubator at 30° C. for 16 h. The contents of each well was resuspended with a micropipettor and a 20 μL aliquot was added to a polystyrene cuvette and diluted with 680 μL of deionized water. The suspension was triturated again immediately before measuring the absorbance at 600 nm (OD600) for cell densities. EC50 values were determined by fitting to the Hill equation using the Excel-based tool ED50PLUS v1.0 (Mario H. Vargas) or using Mathematica. Similar procedures were used for Candida glabrata and Cryptococcus neoformans.

[2] = tested on: Resistant Candida albicans (clinical isolate-45); assay: EC50 in combination with fluconazole, resistant C. albicans; assay type: cell-based
Candida glabrata = assay: EC50 in combination with fluconazole, Candida glabrata; assay type: cell-based; settings: [fluconazole] = 128 μg/mL
Source text: (§2) Strains and growth condition. The wild-type Candida albicans strains used were SC5314 and CaSS1. Cdr1 heterozygous were from Merck Sharp & Dohme Corp. Double Barcoded (DBC) library of heterozygous Candida albicans mutants (version 2013A). Cdr1 deficient mutant was obtained by counterselection of the GRACE library strain on 5-Fluoroorotic Acid (5-FOA) containing plate. Clinical isolated resistant C. albicans were from Dr. David Rogers. Cryptococcus neoformans var. grubii H99 (ATCC 208821) and Candida glabrata BG2, a fluconazole-resistant clinical isolate, were used. Yeast strains were cultured at 30° C. in synthetic complete (SC) medium containing 2% glucose.
as §1
(§3) Because fungal drug-efflux ABC transporters are conserved, Cdr1 inhibitors that target the conserved regions of the pumps are expected to inhibit the drug efflux pumps in all fungi including C. albicans. […] Therefore, those spiroindolinones are candidates for combination antifungal therapy with azoles against invasive infections of not only C. albicans, but also other pathogenic fungi.

Cryptococcus neoformans = assay: EC50 in combination with fluconazole, Cryptococcus neoformans; assay type: cell-based; settings: [fluconazole] = 4 μg/mL
Source text: as §2, §1, §3

NIH 3T3 cells = assay: Cytotoxicity, LDH assay; assay type: cell-based; settings: concentrations up to 1.5 mM
Experimental: The cytotoxicity of spiroindoline Compounds 1, 8 and 25 were tested against NIH 3T3 cells at concentrations up to 1.5 mM (FIG. 13) using an LDH assay.

[3] = tested on: cdr1/CDR1 heterozygous mutant and cdr1/cdr1 deletion strain; assay: Azole-synergizer effect in cdr1 mutants; assay type: cell-based, Candida albicans; settings: with FLC
Source text: as §2
Manually Screening. Of the DBC library was carried out in 96-well flat bottom plates. Briefly, BDC library grown in YPD agar were transferred to SC medium in 96-well flat bottom plates with a 96-well pin tool and grown overnight at 30° C. Cell cultures were diluted 1:800 in fresh SC medium with or without compounds and incubated at 30° C. for 24 h. Cell growth was measured with Tecan GENios Plus microplate reader (Tecan, Switzerland).
Small number of outliers in the HIP profiling indicates few off-targets for the compound. To avoid missing genes due to the bias of PCR and sequencing, a manual screening of the DBC library with Compound 1 and FLC in 96 well plates was also carried out.

[4] = tested on: resistant clinical isolates of C. albicans; assay: Screen of resistant clinical isolates, single dose, broth microdilution (growth OD600); assay type: cell-based, Candida albicans; settings: compound 25 3 μM + fluconazole 64 μg/mL, 16 h
Source text: (Flowers, S. A., et al. Eukaryotic Cell 2012, 11, 1289-1299.) The strains grow at dramatically different rates.

[5] = MDR1, with clotrimazole 0.221 μg/mL
[6] = MDR1, with fluconazole 0.500 μg/mL
[7] = MDR1, with itraconazole 0.004 μg/mL
[8] = MDR1, with ketoconazole 0.289 μg/mL
[9] = MDR1, with miconazole 0.031 μg/mL
[10] = MDR1, with vorizonazole 0.006 μg/mL

Row | Structure (SMILES) | EC50 (C. albicans; [5]) | EC50 (C. albicans; [6]) | EC50 (C. albicans; [7]) | EC50 (C. albicans; [8]) | EC50 (C. albicans; [9]) | EC50 (C. albicans; [10]) | MIC50 (C. albicans; with clotrimazole 0.221 μg/mL) | MIC50 (C. albicans; with fluconazole 0.500 μg/mL) | MIC50 (C. albicans; with itraconazole 0.004 μg/mL) | MIC50 (C. albicans; with ketoconazole 0.289 μg/mL) | MIC50 (C. albicans; with miconazole 0.031 μg/mL) | MIC50 (C. albicans; with vorizonazole 0.006 μg/mL) | EC50 [1] | EC50 (Candida glabrata) | EC50 (Cryptococcus neoformans) | further results
1 | Cc1c(Cl)ccc2c1NC(=O)[C@]21N[C@H](Cc2ccccc2)[C@@H]2C(=O)N(c3ccc(F)cc3)C(=O)[C@@H]21 (racemic) [Compound 1, (±)-(3R,3′R,3a′R,6a'S)-3′-benzyl-6-chloro-5′-(4-fluorophenyl)-7-methyl-2′,3′,3a′,6a′-tetrahydro-4′H-spiro[indoline-3,1′-pyrrolo[3,4-c]pyrrole]-2,4′,6′(5′H)-trione] | 500 nM | 100 nM | 700 nM | 830 nM | 990 nM | 310 nM | 3.7 µM | 1.3 µM | 1.7 µM | 7.4 µM | 3.6 µM | 4.5 µM | 11 nM | 640 nM | > 30000 nM | susceptibility of C. albicans to azole antifungals (C. albicans; all azole antifungals tested): increase the susceptibility; growth inhibitory activity of cycloheximide (C. albicans; cycloheximide, substrate of the Cdr1 efflux pump): enhance the growth inhibitory activity; growth inhibitory activity of thiolutin (C. albicans; thiolutin, substrate of Mdr1): did not enhance the growth inhibitory activity; EC50 ([2]; C. albicans clinical isolate-45; [fluconazole] = 64 μg/mL; read-out: EC50 Resistant Candida albicans): 440 nM; cytotoxicity (NIH 3T3 cells): weak to negligible cytotoxicity; effect as azole-synergizer in cdr1 mutants [3]: significantly enhanced in the cdr1/CDR1 heterozygous mutant but blocked in the cdr1/cdr1 deletion strain
2 | Cc1c(Cl)ccc2c1NC(=O)[C@@]21[C@H]2C(=O)N(c3ccccc3)C(=O)[C@H]2[C@H]2CN(C(=O)OCc3ccccc3)CCN21 (racemic) [Compound 25, (±)-benzyl (3R,3a′R,3b'S,9a'S)-6-chloro-7-methyl-1′,2,3′-trioxo-2′-phenyl-2′,3′,3a′,3b′,4′,6′,7′,9a′-octahydrospiro[indoline-3,9′-pyrrolo[3′,4′:3,4]pyrrolo[1,2-a]pyrazine]-5′(1′H)-carboxylate] | 150 nM | 11 nM | 190 nM | 14 nM | 240 nM | 62 nM | 4.1 µM | 0.84 µM | 2.5 µM | 2.3 µM | 25 µM | 1.9 µM | 0.3 nM | > 30000 nM | 192 nM | EC50 (C. albicans; MDR1, with isavuconazole 0.0006 μg/mL): 4 nM; MIC50 (C. albicans; with isavuconazole 0.0006 μg/mL): 0.11 µM; Growth (OD600) +Cpd25 + Fluc ([4]; clinical isolate 15): 2.64; Growth (OD600) +Cpd25 + Fluc ([4]; clinical isolate 16): 0.43; Growth (OD600) +Cpd25 + Fluc ([4]; clinical isolate 17): 0.79; Growth (OD600) +Cpd25 + Fluc ([4]; clinical isolate 21): 2.02; Growth (OD600) +Cpd25 + Fluc ([4]; clinical isolate 22): 1.28; Growth (OD600) +Cpd25 + Fluc ([4]; clinical isolate 23): 0.60; Growth (OD600) +Cpd25 + Fluc ([4]; clinical isolate 25): 1.59; Growth (OD600) +Cpd25 + Fluc ([4]; clinical isolate 26): 0.83; Growth (OD600) +Cpd25 + Fluc ([4]; clinical isolate 30): 5.38; Growth (OD600) +Cpd25 + Fluc ([4]; clinical isolate 33): 0.88; Growth (OD600) +Cpd25 + Fluc ([4]; clinical isolate 36): 1.07; Growth (OD600) +Cpd25 + Fluc ([4]; clinical isolate 41): 6.52; Growth (OD600) +Cpd25 + Fluc ([4]; clinical isolate 45): 1.03; Growth (OD600) +Cpd25 + Fluc ([4]; clinical isolate 49): 11.29; EC50 ([2]; read-out: EC50 Resistant Candida albicans; C. albicans clinical isolate-45; [fluconazole] = 64 μg/mL): 400 nM
